One assay has as its target T1, HSP60/10 (Homo sapiens, UniProt P10809).
T1 construct: octa-Histidine (His8) tag, TEV-cleavable (N, cleaved yes); made in house; host or cells: HSP60 in Rosetta 2 (DE3) E. coli; HSP10 in Rosetta 2 (DE3) pLysS
Briefly: HSP60/10-mediated dMDH refolding assay. In kind it is biochemical. Conditions: 37° C., 1 mM ATP, read-out: Biochemical Assay IC50 HSP60/10-dMDH Refolding. Summed up:
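Pre-formed chaperonin–denatured pig heart MDH complexes (50 nM GroEL or HSP60, 60 nM GroES or HSP10, 12 nM dMDH) refolded with 1 mM ATP and compound (100 μM–46 nM) at 37 °C, ~20-40 min for GroEL/ES or ~40-60 min for HSP60/10. After EDTA quench, MDH activity was read as NADH loss at A340. IC50 came from variable-slope regression.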

The target in another assay is T2, native MDH (Sus scrofa, UniProt P00346).
T2 construct: soluble pig heart MDH from Roche, product #10127248001; purchased Roche 10127248001; host or cells: pig heart
T2 sequence (P00346 25-338): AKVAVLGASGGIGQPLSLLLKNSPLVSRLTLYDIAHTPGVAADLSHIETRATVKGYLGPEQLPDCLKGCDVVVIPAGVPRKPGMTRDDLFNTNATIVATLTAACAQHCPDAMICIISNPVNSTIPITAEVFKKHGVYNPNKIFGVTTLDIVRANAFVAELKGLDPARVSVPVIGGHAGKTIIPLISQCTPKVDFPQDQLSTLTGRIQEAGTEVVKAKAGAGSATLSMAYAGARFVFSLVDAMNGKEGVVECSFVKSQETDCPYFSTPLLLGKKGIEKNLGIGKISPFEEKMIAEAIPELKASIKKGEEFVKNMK
Nature of the assay: Native MDH enzymatic activity counter-screen. In kind it is biochemical, pig. Conditions: compounds added after refolding and EDTA quench, read-out: Biochemical Assay IC50 Native MDH Activity. The procedure:
Counter-screening compounds for inhibition of native MDH enzymatic activity.
Reagent Preparations & Assay Protocol: This assay was performed as described above for the GroEL/ES-dMDH refolding assay; however, the assay protocol differed in the sequence of compound addition to the assay plates. The refolding reactions were allowed to proceed for 45 min at 37° C. in the absence of test compounds (complete refolding of MDH occurs), then quenched with the EDTA stock. Compounds were then pin-transferred into the plates after the EDTA quenching step; thus, compounds effects are only possible by inhibiting the fully-refolded MDH reporter substrate. Next enzymatic activity of the refolded MDH was initiated by addition of 20 μL MDH enzymatic assay stock (20 mM sodium mesoxalate and 2.4 mM NADH in reaction buffer, 50 mM Tris pH 7.4, 50 mM KCl, 1 mM DTT), and followed by measuring the NADH absorbance in each well at 340 nm using a Molecular Devices SpectraMax Plus384 microplate reader
A340 nm measurements were recorded at 0.5 minutes (start point) and at successive time points until the amount of NADH consumed reached ˜90% (end point, generally between 20-35 minutes). Compounds were tested in 8-point, 3-fold dilution series (62.5 μM to 29 nM during the reporter reaction) in clear, flat-bottom 384-well microtiter plates.
DMSO was used as a negative control, and previously discovered native MDH inhibitors were used as positive controls. IC50 values for the test compounds were obtained by plotting the % inhibition results in GraphPad Prism 6 and analyzing by non-linear regression using the log (inhibitor) vs. response (variable slope) equation. Results presented represent the averages of IC50 values obtained from at least quadriplicate (duplicate of duplicate) replicates.

Like-named read-outs stand apart in the source and are kept apart here. Where only a bound is given, the exact number is not on record here.

T1 sequence (P10809 27-573): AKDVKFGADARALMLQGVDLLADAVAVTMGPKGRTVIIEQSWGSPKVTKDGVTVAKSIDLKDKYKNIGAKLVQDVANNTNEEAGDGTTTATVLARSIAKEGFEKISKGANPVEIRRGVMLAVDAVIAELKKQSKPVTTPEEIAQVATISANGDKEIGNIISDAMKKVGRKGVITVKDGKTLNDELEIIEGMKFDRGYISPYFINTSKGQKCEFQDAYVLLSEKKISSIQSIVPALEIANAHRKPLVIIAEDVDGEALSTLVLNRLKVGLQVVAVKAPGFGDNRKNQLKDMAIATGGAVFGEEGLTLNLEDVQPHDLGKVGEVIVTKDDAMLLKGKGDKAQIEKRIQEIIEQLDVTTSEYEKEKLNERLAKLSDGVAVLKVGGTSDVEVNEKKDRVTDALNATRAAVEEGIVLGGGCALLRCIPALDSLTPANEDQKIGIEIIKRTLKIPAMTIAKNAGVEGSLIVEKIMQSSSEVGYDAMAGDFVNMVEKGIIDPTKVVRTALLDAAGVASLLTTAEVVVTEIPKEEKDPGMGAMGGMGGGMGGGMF

For the molecule `Cc1cc(C(C#N)c2ccc(Cl)cc2)c(Cl)cc1NC(=O)c1ccc(F)cc1` (stereo not drawn) [Compound 81, N-(5-chloro-4-((4-chlorophenyl)(cyano)methyl)-2-methylphenyl)-4-fluorobenzamide], the IC50 on HSP60/10 (Table 2) was more than 100 µM; at native MDH (Table 2) it was more than 63 µM.

Consider `Cc1cc(C(C#N)c2ccc(Cl)cc2)c(Cl)cc1NC(=O)c1ccccc1` (stereo not drawn) [Compound 82, N-(5-chloro-4-((4-chlorophenyl)(cyano)methyl)-2-methylphenyl)benzamide], for which the IC50 on HSP60/10 (Table 2) was more than 100 µM; at native MDH (Table 2), more than 63 µM.

Take `CC(=O)Nc1cc(Cl)c(C(C#N)c2ccc(Cl)cc2)cc1C` (stereo not drawn) [Compound 83, N-(5-chloro-4-((4-chlorophenyl)(cyano)methyl)-2-methylphenyl)acetamide]: the figures for the IC50 at HSP60/10 (Table 2) and at native MDH (Table 2) were 69 µM and more than 63 µM, respectively.

As for `COc1ccc(Cl)cc1C(=O)Nc1ccc(C(C#N)c2ccccc2)cc1` (stereo not drawn) [Compound 84, 5-chloro-N-(4-(cyano(phenyl)methyl)phenyl)-2-methoxybenzamide], the results for the IC50 on HSP60/10 (Table 3) and on native MDH (Table 3) were more than 100 µM and more than 63 µM, respectively.

Take `N#CC(c1ccccc1)c1ccc(NC(=O)c2cc(Cl)ccc2O)cc1` (stereo not drawn) [Compound 85, 5-chloro-N-(4-(cyano(phenyl)methyl)phenyl)-2-hydroxybenzamide]: the IC50 at HSP60/10 (Table 3) is 75 µM; at native MDH (Table 3), more than 63 µM.

For the molecule `COc1ccc(Cl)cc1C(=O)Nc1ccc(Oc2ccc(Cl)cc2)c(Cl)c1` [Compound 86, 5-chloro-N-(3-chloro-4-(4-chlorophenoxy)phenyl)-2-methoxybenzamide], the IC50 on HSP60/10 (Table 3) is more than 100 µM; on native MDH (Table 3), more than 63 µM.

In the case of `O=C(Nc1ccc(Oc2ccc(Cl)cc2)c(Cl)c1)c1cc(Cl)ccc1O` [Compound 87, 5-chloro-N-(3-chloro-4-(4-chlorophenoxy)phenyl)-2-hydroxybenzamide], the IC50 is 9.5 µM on HSP60/10 (Table 3) and more than 63 µM on native MDH (Table 3).

Regarding `COc1ccc(Cl)cc1C(=O)Nc1ccc(Oc2ccc(Cl)cc2)cc1` [Compound 88, 5-chloro-N-(4-(4-chlorophenoxy)phenyl)-2-methoxybenzamide], the values for the IC50 on HSP60/10 (Table 3) and on native MDH (Table 3) were more than 100 µM and more than 63 µM, respectively.

For `O=C(Nc1ccc(Oc2ccc(Cl)cc2)cc1)c1cc(Cl)ccc1O` [Compound 89, 5-chloro-N-(4-(4-chlorophenoxy)phenyl)-2-hydroxybenzamide], the results for the IC50 on HSP60/10 (Table 3) and at native MDH (Table 3) were 45 µM and more than 63 µM, respectively.

For the molecule `COc1ccc(Cl)cc1C(=O)Nc1ccc(Oc2ccccc2)c(Cl)c1` [Compound 90, 5-chloro-N-(3-chloro-4-phenoxyphenyl)-2-methoxybenzamide], the IC50 at HSP60/10 (Table 3) was more than 100 µM; at native MDH (Table 3), more than 63 µM.

With `O=C(Nc1ccc(Oc2ccccc2)c(Cl)c1)c1cc(Cl)ccc1O` [Compound 91, 5-chloro-N-(3-chloro-4-phenoxyphenyl)-2-hydroxybenzamide], the IC50 on HSP60/10 (Table 3) was 22 µM; on native MDH (Table 3), more than 63 µM.

For the molecule `COc1ccc(Cl)cc1C(=O)Nc1ccc(Oc2ccccc2)cc1` [Compound 92, 5-chloro-2-methoxy-N-(4-phenoxyphenyl)benzamide], the IC50 on HSP60/10 (Table 3) is more than 100 µM; at native MDH (Table 3) it was more than 63 µM.

Take `O=C(Nc1ccc(Oc2ccccc2)cc1)c1cc(Cl)ccc1O` [Compound 93, 5-chloro-2-hydroxy-N-(4-phenoxyphenyl)benzamide]: the IC50 was more than 100 µM on HSP60/10 (Table 3) and more than 63 µM at native MDH (Table 3).

In the case of `COc1ccc(Cl)cc1C(=O)Nc1ccc(Sc2nc3ccccc3s2)c(Cl)c1` [Compound 94, N-(4-(benzo[d]thiazol-2-ylthio)-3-chlorophenyl)-5-chloro-2-methoxybenzamide], the figures for the IC50 at HSP60/10 (Table 3) and on native MDH (Table 3) were more than 100 µM and more than 63 µM, respectively.

In the case of `O=C(Nc1ccc(Sc2nc3ccccc3s2)c(Cl)c1)c1cc(Cl)ccc1O` [Compound 95, N-(4-(benzo[d]thiazol-2-ylthio)-3-chlorophenyl)-5-chloro-2-hydroxybenzamide], the IC50 on HSP60/10 (Table 3) is 39 µM; at native MDH (Table 3), more than 63 µM.

With `COc1ccc(Cl)cc1C(=O)Nc1ccc(Sc2nc3ccccc3s2)cc1` [Compound 96, N-(4-(benzo[d]thiazol-2-ylthio)phenyl)-5-chloro-2-methoxybenzamide], the IC50 is more than 100 µM on HSP60/10 (Table 3) and more than 63 µM at native MDH (Table 3).

Regarding `O=C(Nc1ccc(Sc2nc3ccccc3s2)cc1)c1cc(Cl)ccc1O` [Compound 97, N-(4-(benzo[d]thiazol-2-ylthio)phenyl)-5-chloro-2-hydroxybenzamide], the IC50 at HSP60/10 (Table 3) is 59 µM; on native MDH (Table 3), more than 63 µM.

For `COc1ccc(Cl)cc1C(=O)Nc1ccc(Cc2ccccc2)cc1` [Compound 98, N-(4-benzylphenyl)-5-chloro-2-methoxybenzamide], the IC50 on HSP60/10 (Table 3) was more than 100 µM; at native MDH (Table 3) it was more than 63 µM.

`O=C(Nc1ccc(Cc2ccccc2)cc1)c1cc(Cl)ccc1O` [Compound 99, N-(4-benzylphenyl)-5-chloro-2-hydroxybenzamide]: the IC50 was more than 100 µM at HSP60/10 (Table 3) and more than 63 µM on native MDH (Table 3).

Take `COc1ccc(Cl)cc1C(=O)Nc1ccc(CCc2ccccc2)cc1` [Compound 100, 5-chloro-2-methoxy-N-(4-phenethylphenyl)benzamide]: the values for the IC50 on HSP60/10 (Table 3) and at native MDH (Table 3) were more than 100 µM and more than 63 µM, respectively.

On to `O=C(Nc1ccc(CCc2ccccc2)cc1)c1cc(Cl)ccc1O` [Compound 101], for which the IC50 on HSP60/10 (Table 3) was 81 µM; at native MDH (Table 3) it was more than 63 µM.

For the molecule `COc1ccc(Cl)cc1C(=O)Nc1ccc(OCc2ccccc2)cc1` [Compound 102, N-(4-(benzyloxy)phenyl)-5-chloro-2-methoxybenzamide], the IC50 on HSP60/10 (Table 3) was more than 100 µM; on native MDH (Table 3), more than 63 µM.

On to `O=C(Nc1ccc(OCc2ccccc2)cc1)c1cc(Cl)ccc1O` [Compound 103, N-(4-(benzyloxy)phenyl)-5-chloro-2-hydroxybenzamide], for which the IC50 on HSP60/10 (Table 3) is more than 100 µM; on native MDH (Table 3), more than 63 µM.

Regarding `COc1ccc(Cl)cc1C(=O)Nc1ccc(NC(C)=O)cc1` [Compound 104, N-(4-acetamidophenyl)-5-chloro-2-methoxybenzamide], the IC50 is more than 100 µM on HSP60/10 (Table 3) and more than 63 µM on native MDH (Table 3).

Consider `CC(=O)Nc1ccc(NC(=O)c2cc(Cl)ccc2O)cc1` [Compound 105, N-(4-acetamidophenyl)-5-chloro-2-hydroxybenzamide], for which the IC50 is more than 100 µM on HSP60/10 (Table 3) and more than 63 µM at native MDH (Table 3).

For the molecule `COC(=O)c1ccc(NC(=O)c2cc(Cl)ccc2OC)cc1` [Compound 106, methyl 4-(5-chloro-2-methoxybenzamido)benzoate], the IC50 is more than 100 µM on HSP60/10 (Table 3) and more than 63 µM on native MDH (Table 3).

As to `COC(=O)c1ccc(NC(=O)c2cc(Cl)ccc2O)cc1` [Compound 107, methyl 4-(5-chloro-2-hydroxybenzamido)benzoate], the IC50 was more than 100 µM on HSP60/10 (Table 3) and more than 63 µM on native MDH (Table 3).

Regarding `COc1ccc(Cl)cc1C(=O)Nc1ccc(C(=O)O)cc1` [Compound 108, 4-(5-chloro-2-methoxybenzamido)benzoic acid], the IC50 was more than 100 µM at HSP60/10 (Table 3) and more than 63 µM at native MDH (Table 3).

With `COc1ccc(Cl)cc1C(=O)Nc1ccc(CC#N)cc1` [Compound 110, 5-chloro-N-(4-(cyanomethyl)phenyl)-2-methoxybenzamide], the IC50 at HSP60/10 (Table 3) was more than 100 µM; on native MDH (Table 3), more than 63 µM.

For `N#CCc1ccc(NC(=O)c2cc(Cl)ccc2O)cc1` [Compound 111, 5-chloro-N-(4-(cyanomethyl)phenyl)-2-hydroxybenzamide], the IC50 is more than 100 µM on HSP60/10 (Table 3) and more than 63 µM at native MDH (Table 3).

Source of the values: patent US20230406831A1, “COMPOUNDS AND METHODS OF INHIBITING BACTERIAL CHAPERONIN SYSTEMS” (THE TRUSTEES OF INDIANA UNIVERSITY, priority 2020, published 2023).
